# Key:
# HSaVEC = test: In vitro ATP release assay (luciferin:luciferase), HSaVEC; assay type: cell-based, human; conditions: for inhibition of TNFα-mediated ATP release: CBX, ^10panx1; for effect of inhibitor on TNFα-induced ATP release: antagonist 30 min, WP9QY 10 μM, BFA 5 μg/mL, RuR 20 μM, PP2/PP3 10 μM
# Procedure: (§1) In vitro Human arterial and venous ECs were seeded in 24-well plates pre-coated with 0.2% gelatin and grown to confluency. On the day of experiment, the media was removed from each well and cells were carefully washed twice with warm serum free basal EC medium supplemented with 1% BSA. Cells were then incubated in 300 μL of fresh basal EC medium supplemented with 1% BSA for 30 minutes at 37° C. to allow degradation of extracellular ATP released due to mechanical stimulation during washes. Endogenous ecto-nucleotidases were inhibited by incubating EC monolayers with 300 μM ARL 67156 (Tocris) for 30 minutes at 37° C. Cells were then stimulated with recombinant human TNFα (R&D Systems). For dose response experiments, ECs were incubated with 0.1, 1, 5, 10, 50, or 100 ng/mL recombinant TNFα for 30 minutes at 37° C. For time-course experiments, ECs were stimulated with 10 ng/mL recombinant TNFα for different time points up to 1 hour. In experiments where pharmacological inhibitors were employed, ECs were incubated with antagonists in parallel with ARL 67156 for 30 minutes. To inhibit TNFR1, ECs were incubated with the peptide antagonist of the receptor WP9QY (10 μM; Anaspec). […] Cx hemichannels were inhibited with lanthanum (La^3+; 100 μM; Sigma) and Panx1 channels were blocked with carbenoxolone (CBX; 50 μM; Sigma) and the inhibitory peptide ^10panx1 (200 μM; Genscript). […] The role of caspase activation was assessed by inhibition with the pan-caspase blocker Q-VD-OPh (100 μM; Sigma). Following stimulation with TNFα or vehicle, 150 μL of the cell supernatant was collected and immediately placed into pre-chilled 1.5 mL Eppendorf tubes on ice. All samples were centrifuged at 10,000×g for 5 minutes and 50 μL of each sample was transferred to a white, opaque 96-well plate. Using a FluoStar Omega luminometer, 50 μL of luciferin:luciferase reagent (ATP bioluminescence assay kit HSII; Roche) was injected into each well and luminescence was recorded following a 5s orbital mix. ATP concentration in each sample was calculated from a standard curve for all experiments. Data are presented as a % change in ATP release from baseline (i.e. unstimulated cells) and expressed as mean±SEM (n=5 independent experiments with triplicate measurements).
# [1] = test system: THP-1 monocyte adhesion to HUVEC; test: Static adhesion assay, THP-1 monocytes on HUVEC; assay type: cell-based, human; conditions: HUVEC treated with inhibitor prior to TNFα stimulation
# Procedure: HUVECs were seeded on gelatin-coated glass coverslips in 6-well plates and grown to confluence. On the day of the experiment, cells were washed 2× with 1× PBS and incubated for 30 minutes in basal EGM supplemented with 1% BSA in the presence or absence of pharmacological inhibitors. During this incubation period, human THP-1 monocytes were loaded with Calcein-AM (Invitrogen; 5 μg/mL) for 30 minutes at 37° C. Cells were then pelleted by brief centrifugation and excess calcein was removed by washing THP-1 cells 3 times in 1× PBS. Next, HUVECs were stimulated with TNFα (10 ng/mL) for 30 minutes. Following EC activation, calcein-loaded THP-1 monocytes were added to EC monolayers and incubated for 20 minutes at 37° C. to allow THP-1 to contact ECs. Monolayers were then washed 3× with 1× PBS and fixed in ice cold 4% PFA. Following fixation, coverslips were removed from the 6-well plates and mounted on glass microscope slides with Prolong Gold anti-fade mountant with DAPI (Life Technologies). Fluorescent micrographs were obtained at 10×magnification and the number of adherent THP-1 monocytes/ECs was quantified in 5 randomized regions/slide. Data are expressed as mean±SEM (n=3 independent experiments).
# HUVEC = test: In vitro ATP release assay (luciferin:luciferase), HUVEC; assay type: cell-based, human; conditions: for reduction of TNFα-mediated ATP release: CBX 50 μM, ^10panx1 200 μM; for effect of inhibitor on TNFα-induced ATP release: antagonist 30 min, WP9QY 10 μM, La3+ 100 μM, BFA 5 μg/mL, RuR 20 μM, PP2/PP3 10 μM, Q-VD-OPh 100 μM
# Procedure: as §1
# Panx1 = test: Western blot of Panx1 phosphorylation at Y198 in venous ECs; assay type: cell-based, human
# Procedure: (§2) Following stimulation with TNFα (in vitro: 10 ng/mL; ex vivo: 50 ng/mL), confluent endothelial cell monolayers or isolated mesenteric venules were homogenized in ice cold Triton extraction buffer (50 mM Tris-HCL, 150 mM NaCl , 5 mM EDTA, 1% deoxycholate, 1% NP-40 and 1% Triton-X100 in phosphate buffered saline and pH adjusted to 7.4) containing protease and phosphatase inhibitors. Cell/Tissue lysates were incubated with rotation at 4° C. for 20 minutes to solubilize proteins, followed by centrifugation for 5 minutes at 13,000× g to pellet cell debris. Protein concentration was quantified using the BCA method. 15-20 μg of total protein was subjected to SDS gel electrophoresis using 4-12% Bis-Tris gels (Invitrogen) and transferred to nitrocellulose membranes for immunoblotting. Membranes were blocked for 1 hr at room temperature with LiCOR blocking solution, then incubated overnight at 4° C. with primary antibodies against pY416SFKs, (BD Biosciences; 1:1000) pY198Panx1 (Alpha Diagnostic Intl (ADI); 1:1000) and GAPDH (Sigma; 1:10,000) or an antibody against the intracellular loop of Panx1 (Panx1-IL) (ADI; 1:1000) (normalization controls). Membranes were then washed and incubated with LiCOR secondary antibodies (1:10,000) and visualized and quantitated using LiCOR Odyssey. To inhibit SFK activity, EC monolayers were incubated with the SFK inhibitor PP2 (Tocris; 10 μM). […] To show specificity for the phosphorylated form of SFKs and Panx1, cell lysates were incubated with alkaline phosphatase for 1 hour at 37° C. Western blot images have been cropped for presentation. Uncropped Western blots can be found in FIGS. 12-13. Data are expressed as mean±SEM (n=3 independent experiments).
# [2] = test system: isolated murine mesenteric venules; test: Ex vivo vascular perfusion ATP release assay, mesenteric venules; assay type: cell-based, mouse; conditions: WP9QY 10 μM, PP2 10 μM
# Procedure: For isolated blood vessel experiments, 2nd order venules or arterioles were dissected from the mouse mesentery circulation and cannulated on glass micropipettes to access the vessel lumen. […] Vessels were then perfused with MOPS PSS containing 300 μM ARL 67156 +/− pharmacological inhibitors and incubated for an additional 20 minutes prior to perfusion with MOPS PSS containing recombinant murine TNFα (R&D Systems). Aliquots of the lumenal perfusate were collected every 5 minutes for a 25-minute period and the ATP concentration was quantified by bioluminescence as described above. Data are expressed as mean±SEM (n=4 independent experiments).
# Src Family Kinases (SFK) = test: Western blot of SFK activation (pY416SFK) in venous ECs; assay type: cell-based, human; conditions: HUVEC and HSaVEC; PP2/PP3 10 μM
# Procedure: as §2
# C57B1/6J mice = test: Intravital microscopy of cremaster muscle for leukocyte adhesion and emigration; assay type: in vivo, mouse; conditions: control C57B1/6J mice, tamoxifen 10 consecutive days
# Procedure: Mice were prepared for intravital microscopy of the cremaster muscle as described previously^25. Briefly, mice were anesthetized with ketamine hydrochloride (150 mg/kg, IP) and xylazine (7.5 mg/kg, IP). The cremaster was isolated, laid over a viewing pedestal, superfused with bicarbonate-buffered saline. After 30 min equilibration, a venule with a wall shear rate (WSR) of ≥500/s, diameter between 20 μm and 40 μm, and the least number of adherent and emigrated leukocytes was chosen for further study. A 1 min baseline recording was made, after which superfusion was stopped, and 50 μl TNFα (1.7 ng/ml in 0.1% BSA) or vehicle control was added under a saran wrap cover every 30 min. 1 min recordings were made just prior to each addition, for 3 hrs. The TNFα was initially reconstituted in PBS at 3.4 ng/ml and 150 μl aliquots were frozen. An aliquot was mixed 1:1 with BBS containing 0.2% BSA at the time of the experiment. Leukocyte adhesion and emigration were determined by off-line analysis. Leukocytes were considered adherent if they stopped for at least 30 s (expressed as #/mm^2 vessel wall), and emigrated leukocytes were leukocytes identified in the interstitium (expressed as #cells/mm^2 tissue). Data are expressed as mean±SEM (n=6-7 independent animals/group).
# pannexin1 channel = pannexin1 channel (Homo sapiens, UniProt Q96RD7); conditions: cited from earlier work
# Panx1 channels in HUVEC = molecular target: T1, Panx1 channels in HUVEC (Homo sapiens, UniProt Q96RD7); test: YO-PRO-1 dye uptake assay; assay type: cell-based; conditions: ^10panx1 200 μM, TNFα 10 ng/mL 30 minutes
# T1 construct: Primary human umbilical vein endothelial cells (HUVEC) were purchased from Cell Applications; PromoCell 200K-05; C-12231; host or cells: HUVEC, HSaVEC (primary human venous endothelial cells)
# Procedure: HUVECs were cultured on poly-L-lysine coated coverslips and grown to confluence in EGM. Cells were washed three times with 1× PBS and incubated in fresh EGM for 30 minutes prior to stimulation. To stimulate YO-PRO-1 dye uptake, YO-PRO-1 (1 μM) was added to the media and EC monolayers were treated with TNFα at a range of concentrations (0.1 ng/mL-100 ng/mL) for 30 minutes. At the end of the stimulation, cells were washed 3× with 1× PBS and immediately fixed in 4% PFA. Coverslips were then mounted on microscope slides with DAPI ProlongGold mounting agent and visualized on an Olympus IX81 laser scanning confocal microscope. Dye uptake was quantified as the intensity of YO-PRO-1 fluorescence over time using ImageJ software. For time course analysis, YO-PRO-1 was added to the culture media at various time points after TNFα stimulation and incubated to the 30-minute time point. Data are expressed as mean±SEM (n=3 independent experiments).
# Sequence of pannexin1 channel (Q96RD7 whole entry): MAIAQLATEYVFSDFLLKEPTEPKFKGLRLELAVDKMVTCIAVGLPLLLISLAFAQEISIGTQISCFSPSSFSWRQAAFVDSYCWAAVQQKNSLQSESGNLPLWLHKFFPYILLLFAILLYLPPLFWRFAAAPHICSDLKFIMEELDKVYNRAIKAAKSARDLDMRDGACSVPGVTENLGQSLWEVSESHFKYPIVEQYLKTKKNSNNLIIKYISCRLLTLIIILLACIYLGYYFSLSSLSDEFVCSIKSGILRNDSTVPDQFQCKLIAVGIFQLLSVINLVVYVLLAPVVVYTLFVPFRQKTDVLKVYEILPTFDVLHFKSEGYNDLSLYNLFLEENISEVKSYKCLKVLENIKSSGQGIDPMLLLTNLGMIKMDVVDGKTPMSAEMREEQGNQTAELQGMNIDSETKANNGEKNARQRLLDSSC
# T1 sequence (Q96RD7 whole entry): as above
compound,measurement,setting,value
"CC1(C)[C@@H](OC(=O)CCC(=O)O)CC[C@]2(C)[C@H]3C(=O)C=C4[C@@H]5C[C@@](C)(C(=O)O)CC[C@]5(C)CC[C@@]4(C)[C@]3(C)CC[C@@H]12 [CBX, carbenoxolone]",inhibition of TNFα-mediated ATP release,HSaVEC; HSaVEC,69.7%
same,effect on TNFα-induced THP-1 monocyte adhesion,[1],significantly reduced
same,reduction of TNFα-mediated ATP release,HUVEC; HUVEC,86.4%
CC(C)(C)n1nc(-c2ccc(Cl)cc2)c2c(N)ncnc21 [PP2],effect of inhibitor on TNFα-induced ATP release,HSaVEC; HSaVEC,significantly blunted
same,effect on Panx1 Y198 phosphorylation induced by c-Src overexpression,Panx1; HUVEC,blocked
same,effect on TNFα-induced Panx1 phosphorylation at Y198,"Panx1; HUVEC and HSaVECs, pretreatment with PP2",blocked
same,effect of inhibitor on TNFα-induced ATP release,[2],blunting ATP release
same,effect of inhibitor on TNFα-induced ATP release,HUVEC; HUVEC,significantly blunted
same,effect on TNFα-induced Y416 phosphorylation of SFK,Src Family Kinases (SFK),reduced Y416 phosphorylation to baseline levels
Nc1ncnc2c1cnn2-c1ccccc1 [PP3],effect of inhibitor on TNFα-induced ATP release,HSaVEC; HSaVEC,no significant effect
same,effect of inhibitor on TNFα-induced ATP release,HUVEC; HUVEC,no significant effect
same,effect on TNFα-induced Y416 phosphorylation of SFK,Src Family Kinases (SFK),no effect
CC(C)[C@H](NC(=O)c1ccc2ccccc2n1)C(=O)N[C@@H](CC(=O)O)C(=O)COc1c(F)cccc1F [Q-VD-OPh],effect of inhibitor on TNFα-induced ATP release,HUVEC; HUVEC,lack of inhibition
[La] [lanthanum],effect of inhibitor on TNFα-induced ATP release,HUVEC; HUVEC,failed to reduce ATP release
N.N.N.N.N.N.N.N.N.N.N.N.N.N.[Cl-].[Cl-].[Cl-].[Cl-].[Cl-].[Cl-].[O-2].[O-2].[Ru+3].[Ru+3].[Ru+4] [ruthenium red],effect of inhibitor on TNFα-induced ATP release,HSaVEC; HSaVEC,ruled out the involvement
same,effect of inhibitor on TNFα-induced ATP release,HUVEC; HUVEC,ruled out the involvement
CC/C(=C(\c1ccccc1)c1ccc(OCCN(C)C)cc1)c1ccccc1 [tamoxifen],effect on TNFα-induced leukocyte adhesion,C57B1/6J mice,no effect
same,effect on TNFα-induced leukocyte emigration,C57B1/6J mice,no effect
Apyrase,effect on TNFα-induced THP-1 monocyte adhesion,[1],significantly reduced
IL-1β: recombinant human pro-inflammatory cytokine,ATP release on cytokine stimulation,HSaVEC; HSaVEC monolayers,failed to promote ATP release
same,degree of ATP release on co-administration with TNFα vs TNFα alone,"HSaVEC; HSaVEC, TNFα 10 ng/mL plus increasing IL-1β",did not significantly alter
same,ATP release on cytokine stimulation,HUVEC; HUVEC monolayers,failed to promote ATP release
same,degree of ATP release on co-administration with TNFα vs TNFα alone,"HUVEC; HUVEC, TNFα 10 ng/mL plus increasing IL-1β",did not significantly alter
KYPIVEQYLKYGRKKQRRR (hybrid of human and HIV tat seq.) [IL2/PanX peptide],inhibition of pannexin1 channel (previously shown / known),pannexin1 channel,potent and specific inhibitor
same,effect on TNFα-induced THP-1 monocyte adhesion,[1],ability to block leukocyte adhesion
WRQAAFVDSY [^10panx1],inhibition of pannexin1 channel (previously shown / known),pannexin1 channel,block pannexin-1 gap junctions
same,inhibition of TNFα-mediated ATP release,HSaVEC; HSaVEC,75.2%
same,effect on TNFα-induced THP-1 monocyte adhesion,[1],significantly reduced
same,effect on TNFα-induced YO-PRO-1 dye uptake,Panx1 channels in HUVEC,significantly attenuated
same,reduction of TNFα-mediated ATP release,HUVEC; HUVEC,70.9%

# Reference: patent US11331375B2, “Compositions and methods for regulating leukocyte adhesion” (University of Virginia Patent Foundation, priority 2015, dated 2022)
